Data from article PMC7770263 (The Journal of International Medical Research, 2020).

Legend:
[1] = Stability test of QC samples in rat plasma; format: in vitro ADME; details: for Extracted sample stability, Accuracy / Extracted sample stability, Concentration: extracted rat plasma samples; for Extracted sample stability, Accuracy / Long-term stability, Accuracy: relative error; for stability values (short- and long-term stability) / Short-term stability, Concentration / Long-term stability, Accuracy: rat plasma; for stability values (short- and long-term stability): all QC concentrations, room temperature 24 hours and −20°C 30 days; for Short-term stability, Concentration: room temperature for 24 hours; for Long-term stability, Accuracy: −20°C for 30 days
[2] = Pharmacokinetic tests in rats; format: in vivo, Sprague–Dawley rats; details: for absorption in vivo (in words) / elimination rate (in words): intravenous injection of the compound preparation
[3] = nominal concentration 300 ng/mL
[4] = nominal concentration 2400 ng/mL
[5] = male, Sprague-Dawley, rat, plasma, iv, 144 mg/kg
[6] = rat, intravenous injection, 144 mg/kg, mean ± standard deviation
[7] = nominal concentration 8000 ng/mL
[8] = rat plasma, intravenous injection of ticarcillin disodium and clavulanate, 144 mg/kg
[9] = rat plasma, intravenous injection, 144 mg/kg, mean ± standard deviation

SMILES | Extracted sample stability, Concentration [1, 4] | Extracted sample stability, Accuracy [1, 4] [%] | stability values (short- and long-term stability) [1] | Short-term stability, Concentration [1, 4] [ng/mL] | Long-term stability, Accuracy [1, 4] [%] | absorption in vivo (in words) ([2]; rat) | elimination rate (in words) ([2]; rat) | CL(/F) (clearance) [2, 6] [mL/min/kg] | Extracted sample stability, Concentration ([1]; nominal concentration 30 ng/mL) [ng/mL] | Extracted sample stability, Accuracy ([1]; nominal concentration 30 ng/mL) [%] | Extracted sample stability, Concentration [1, 7] [ng/mL] | Extracted sample stability, Accuracy [1, 7] [%] | Short-term stability, Concentration ([1]; nominal concentration 30 ng/mL) [ng/mL] | Short-term stability, Concentration [1, 7] [ng/mL] | Long-term stability, Accuracy ([1]; nominal concentration 30 ng/mL) [%] | Long-term stability, Accuracy [1, 7] [%] | tmax [2, 8] [min] | AUC0-t [2, 9] | AUC0-∞ [2, 9] | Vss obs (observed volume of distribution at steady state) [2, 6] [L/kg] | other results
O=C(O)[C@H]1/C(=C/CO)O[C@@H]2CC(=O)N21 [Clavulanate] | 2344 ± 98 ng/mL | −2.3 | −4.3% to 3.2 | 2389 ± 118 | −1.1 | rapidly absorbed in vivo | shortest t1/2 and most rapid elimination | 5780 ± 3400 | – | – | – | – | – | – | – | – | – | – | – | – | Extracted sample stability, Accuracy ([1]; nominal concentration 80 ng/mL): −2.8%; Extracted sample stability, Concentration [1, 3]: 295 ± 17 ng/mL; Extracted sample stability, Accuracy [1, 3]: −1.7%; Short-term stability, Concentration ([1]; nominal concentration 80 ng/mL): 81.4 ± 0.6 ng/mL; Short-term stability, Concentration [1, 3]: 305 ± 11 ng/mL; Long-term stability, Accuracy ([1]; nominal concentration 80 ng/mL): 3.2%; Long-term stability, Accuracy [1, 3]: −3.7%; AUC0-t [2, 5]: 541 ± 254 ng·h/mL; AUC(0-inf) [2, 5]: 559 ± 251 ng·h/mL; Cmax [2, 5]: 1660 ± 667 ng/mL; half-life [2, 5]: 10.2 ± 2.4 min; tmax [2, 5]: 4.98 min
CC1(C)S[C@@H]2[C@H](NC(=O)[C@@H](C(=O)O)c3ccsc3)C(=O)N2[C@H]1C(=O)O [Ticarcillin S] | 2,465 ± 12 ng/mL | 2.7 | – | 2457 ± 19 | 1.3 | rapidly absorbed in vivo | – | 827.8 ± 63.2 | 30.8 ± 1.3 | 2.7 | 7985 ± 93 | −0.2 | 28.8 ± 0.9 | 7931 ± 113 | −2.3 | −0.6 | 4.98 | 3270 ± 262 ng·h/mL | 3274 ± 264 ng·h/mL | 12.2 ± 0.68 | –
CC1(C)S[C@@H]2[C@H](NC(=O)[C@H](C(=O)O)c3ccsc3)C(=O)N2[C@H]1C(=O)O [ticarcillin] | – | – | −4.3% to 3.2 | – | – | – | – | – | – | – | – | – | – | – | – | – | – | – | – | – | –
CC1(C)S[C@@H]2[C@H](NC(=O)[C@H](C(=O)O)c3ccsc3)C(=O)N2[C@H]1C(=O)O [Ticarcillin R] | 2427 ± 16 ng/mL | 1.1 | – | 2349 ± 15 | −0.5 | rapidly absorbed in vivo | slower | 0.733 ± 0.17 | 28.6 ± 0.8 | −4.7 | 8291 ± 91 | 3.6 | 30.4 ± 0.6 | 7918 ± 107 | −4.3 | 0.8 | 4.98 | 3,654,298 ± 430,890 ng·h/mL | 3,654,643 ± 431,153 ng·h/mL | 0.02 ± 0.00 | –
